These results are taken from patent US7939546B2, “Quinoline derivatives for modulating DNA methylation” (SuperGen, Inc., priority 2007, dated 2011).

Where a name gives a salt, the structure may show the parent alone.

For one data set, the system named is CMV-EE210 cell line. As to the kind of experiment: Toxicity (TD50, cell viability) reported with the GFP assay. The conditions noted are these: for TD50: Dose at which cells are >50% viable. The method, then: (§1) The demethylating activity of non-bis-quaternary 4-anilinoquinolines were tested in a cell-based GFP (green fluorescent protein) assay. This assay has a GFP gene regulated by the CMV promoter and is sensitive to the methylation of CpG sites within the promoter. A decrease in methylation resulting from exposure to a methylation inhibitor leads to GFP expression and is readily scored. Specifically, the CMV-EE210 cell line containing the epigenetically silenced GFP transgene was used to assay for reactivation of GFP expression by flow cytometry. CMV-EE210 was made by transfecting NIH 3T3 cells with the pTR-UF/UF1/UF2 plasmid (Zolotuhin et al., 1996), which is comprised of pBS(+) (Stratagene, Inc.) containing a cytomegalovirus (CMV) promoter driving a humanized GFP gene adapted for expression in mammalian cells. After transfection, high-level GFP expressing cells were initially selected by FACS analysis and sorting using a MoFlo cytometer (Cytomation, Inc.). […] To screen for reactivation of CMV-EE210, decitabine (at […]) or a test compound (at a concentration of 30-50 μM) was added to complete medium (phenol red free DMEM (Gibco, Life Technologies) supplemented with 10% fetal bovine serum (Hyclone)). Cells were then seeded to 30% confluence (˜5000 cell/well) in 96 well plate containing the test compounds and grown for three days in at 37° C. in 5% CO2. The plates were examined under a fluorescent microscope using a 450-490 excitation filter (13 filter cube, Leica, Deerfield Ill.). Wells were scored g1 positive if 10% of viable cells express GFP, g2 positive if 30% of viable cells express GFP and g3 if greater than 75% of the viable cells express GFP. GFP IC 50 is the concentration of an inhibitor that (like an IC50) is the dose at which the GFP expression level goes from g3 to g1/2.

A further data set deals with DNMT1 (Homo sapiens, UniProt P26358). As to the kind of experiment: Selective depletion of DNMT1 by Western blot in treated HCT116 cells. It is filed as cell-based. On the set-up: Protein extracts (equivalent to 100 μg) were isolated from HCT116 cells; endogenous in cells; host or cells: HCT116. Conditions: for % DNMT1 protein level remaining at 5 µM: HCT-116, 5 μM; for % DNMT1 protein level remaining at 10 µM: HCT-116, 10 μM; for % DNMT1 protein level remaining at 100 µM: HCT-116, 100 μM. An excerpt: Biol. 2005, 11, 4727-41.]. For DNMT1, commercially available antibodies from Santa Cruz or New England Biolabs were used.
Chain of DNMT1 (P26358 whole entry): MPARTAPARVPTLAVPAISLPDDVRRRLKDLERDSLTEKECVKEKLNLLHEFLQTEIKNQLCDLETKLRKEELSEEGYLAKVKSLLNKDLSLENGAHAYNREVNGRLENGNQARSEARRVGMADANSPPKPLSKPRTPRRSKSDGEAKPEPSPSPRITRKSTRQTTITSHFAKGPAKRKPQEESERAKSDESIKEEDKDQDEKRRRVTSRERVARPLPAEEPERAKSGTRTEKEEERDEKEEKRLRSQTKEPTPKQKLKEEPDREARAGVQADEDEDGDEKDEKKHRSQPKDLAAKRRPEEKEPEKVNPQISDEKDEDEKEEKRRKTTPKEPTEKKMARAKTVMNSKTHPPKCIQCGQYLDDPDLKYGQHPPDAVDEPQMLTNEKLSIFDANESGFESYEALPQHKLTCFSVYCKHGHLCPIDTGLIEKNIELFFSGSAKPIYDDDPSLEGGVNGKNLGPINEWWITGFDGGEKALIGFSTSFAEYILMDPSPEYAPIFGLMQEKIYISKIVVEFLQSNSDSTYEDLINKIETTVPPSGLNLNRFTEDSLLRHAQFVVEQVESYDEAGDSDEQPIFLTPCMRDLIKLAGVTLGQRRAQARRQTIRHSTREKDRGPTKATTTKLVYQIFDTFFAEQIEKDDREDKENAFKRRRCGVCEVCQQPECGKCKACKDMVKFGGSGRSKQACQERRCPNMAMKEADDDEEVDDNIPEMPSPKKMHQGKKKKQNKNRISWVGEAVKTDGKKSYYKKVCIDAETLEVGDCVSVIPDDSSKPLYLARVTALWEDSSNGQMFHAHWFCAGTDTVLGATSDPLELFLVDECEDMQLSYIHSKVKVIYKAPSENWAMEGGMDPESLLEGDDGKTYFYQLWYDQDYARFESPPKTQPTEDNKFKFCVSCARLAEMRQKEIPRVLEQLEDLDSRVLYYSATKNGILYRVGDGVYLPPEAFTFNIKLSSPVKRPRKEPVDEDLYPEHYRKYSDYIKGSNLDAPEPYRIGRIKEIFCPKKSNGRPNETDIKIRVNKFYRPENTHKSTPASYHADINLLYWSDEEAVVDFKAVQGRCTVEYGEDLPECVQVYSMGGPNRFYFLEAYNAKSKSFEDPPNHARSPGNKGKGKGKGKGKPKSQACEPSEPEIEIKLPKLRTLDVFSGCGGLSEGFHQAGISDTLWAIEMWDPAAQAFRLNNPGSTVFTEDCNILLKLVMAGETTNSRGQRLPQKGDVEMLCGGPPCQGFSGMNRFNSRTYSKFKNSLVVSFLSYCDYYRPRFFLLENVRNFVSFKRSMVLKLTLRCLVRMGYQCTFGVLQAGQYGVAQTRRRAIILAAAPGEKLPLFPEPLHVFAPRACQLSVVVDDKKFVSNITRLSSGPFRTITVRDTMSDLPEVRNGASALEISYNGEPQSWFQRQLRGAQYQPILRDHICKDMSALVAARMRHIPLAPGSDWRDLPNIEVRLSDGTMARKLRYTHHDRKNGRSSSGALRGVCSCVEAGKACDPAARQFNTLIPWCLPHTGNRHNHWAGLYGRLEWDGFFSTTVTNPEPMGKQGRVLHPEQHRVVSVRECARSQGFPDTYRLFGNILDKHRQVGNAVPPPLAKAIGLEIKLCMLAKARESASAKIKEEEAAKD
Background: A western blot detects proteins with antibodies after separation by electrophoresis.

For data set [1], the system named is CMV-EE210 cell line containing the epigenetically silenced GFP transgene. As to the kind of experiment: Cell-based GFP assay for demethylating activity (reactivation of silenced GFP transgene). How it is done: as §1

One may read the IC50 as the concentration that gives 50% inhibition. What is called melting point is the temperature, or range, at which the solid turns liquid.

In the data set on CMV-EE210 cell line, “1-methyl-4-[4-(4-{7-nitroquinolin-4-ylamino}benzamido)-phenylamino]pyridinium dichloride [Cpd. S]” registered a TD50 of 25 µM. For the same molecule, the “% DNMT1 Level” value at DNMT1 (5 μM) was found to be 87%; at DNMT1 (10 μM), 101%; on DNMT1 (100 μM), 69%.
`C[n+]1ccc(Nc2cccc(NC(=O)c3ccc(Nc4ccnc5ccccc45)cc3)c2)cc1` [Cpd. A, 1-methyl-4-(3-{[4-(4-quinolinylamino)benzoyl]amino}anilino)pyridinium chloride] displayed a TD50 in the data set with CMV-EE210 cell line of 12.5 µM. For the same molecule, on DNMT1, the % DNMT1 protein level remaining at 5 µM was 99%, the % DNMT1 protein level remaining at 10 µM came to 117% and the % DNMT1 protein level remaining at 100 µM was found to be 119%.
Take `CN(C)c1ccc2c(Nc3ccc(C(=O)Nc4ccc(Nc5cc[n+](C)cc5)cc4)cc3)ccnc2c1.Cl.[Cl-]` [Cpd. AA]: the “GFP Expression Level” value in data set [1] (test compound 30-50 μM, decitabine at 11 M (so in the source), three days) is given as “g2 (g2 positive if 30% of viable cells express GFP)”. In the data set with CMV-EE210 cell line, this molecule had a TD50 of 25 µM. For the same molecule, the results for the “% DNMT1 Level” value at DNMT1 (5 μM), at DNMT1 (10 μM) and at DNMT1 (100 μM) were 136%, 101% and 32%, respectively.
In the case of `C[n+]1ccc(Nc2ccc(NC(=O)c3ccc(Nc4ccnc5ccccc45)cc3)cc2)cc1` [Cpd. B, 1-methyl-4-(4-(4-(quinolin-4-ylamino)benzamido)phenylamino)pyridinium chloride hydrochloride], the TD50 in the data set with CMV-EE210 cell line stood at 25 µM. Further, at DNMT1, the % DNMT1 protein level remaining at 5 µM came to 102%, the % DNMT1 protein level remaining at 10 µM was found to be 98% and the % DNMT1 protein level remaining at 100 µM stood at 81%.
On to `Cc1cc(Nc2ccc(NC(=O)c3ccc(Nc4ccnc5cc(N(C)C)ccc45)cc3)cc2)nc(N)n1` [Cpd. BB, N-[4-(2-amino-6-methylpyrimidin-4-ylamino)phenyl]-4-(7-(dimethylamino)quinolin-4-ylamino)benzamide hydrochloride], for which the half-inhibitory concentration (IC50) in data set [1] (read-out: GFP IC50) is 100 µM. In the data set with CMV-EE210 cell line, the “toxicity relative to decitabine” value is listed as “less than one-half as toxic as decitabine” and the TD50 was 25 µM. Besides, on DNMT1, the % DNMT1 protein level remaining at 5 µM is 106%, the % DNMT1 protein level remaining at 10 µM amounted to 76% and the % DNMT1 protein level remaining at 100 µM worked out at 32%.
In the data set on CMV-EE210 cell line, `CN(C)c1ccc2c(Nc3ccc(NC(=O)c4ccc(Nc5cc[n+](C)cc5)cc4)cc3)ccnc2c1.Cl.[Cl-]` [Cpd. DD, 7-(dimethylamino)-4-[4-({4-[(1-methyl-4-pyridiniumyl)amino]benzoyl}amino)aniline]quinolinium dichloride] had a TD50 of 25 µM. Further, the “% DNMT1 Level” value worked out at 90% at DNMT1 (5 μM), 74% on DNMT1 (10 μM) and 52% on DNMT1 (100 μM).
The molecule `C[n+]1ccc(Nc2cccc(NC(=O)c3ccc(Nc4ccnc5ccc([N+](=O)[O-])cc45)cc3)c2)cc1` [Cpd. F, 1-methyl-4-(3-{[4-(6-nitro-4-quinolinylamino)benzoyl]amino}anilino)pyridinium chloride] came in with a TD50 in the data set with CMV-EE210 cell line of 25 µM. Besides, on DNMT1, the % DNMT1 protein level remaining at 5 µM came to 145%, the % DNMT1 protein level remaining at 10 µM was 210% and the % DNMT1 protein level remaining at 100 µM turned out to be 155%.
The like results for `Cc1cc(Nc2ccc(NC(=O)c3ccc(Nc4ccnc5ccc([N+](=O)[O-])cc45)cc3)cc2)nc(N)n1` [Cpd. H, N-(4-(2-amino-6-methylpyrimidin-4-ylamino)phenyl)-4-(6-nitroquinolin-4-ylamino)benzamide hydrochloride] were, in that order, 12.5 µM, 132%, 25% and 24%.
The like results for `C/C(=N\N=C(N)N)c1ccc(NC(=O)c2ccc(Nc3ccnc4ccc([N+](=O)[O-])cc34)cc2)cc1` [Cpd. I, (E)-N-[4-{1-([diaminomethylene]hydrazono)ethyl}phenyl]-4-(6-nitroquinolin-4-ylamino)benzamide hydrochloride] were, in that order, 25 µM, 27%, 80% and 48%.
For the molecule `C[n+]1ccc(Nc2cccc(C(=O)Nc3ccc(Nc4ccnc5ccc([N+](=O)[O-])cc45)cc3)c2)cc1` [Cpd. J, 4-[4-({3-[(1-methyl-4-pyridiniumyl)amino]benzoyl}amino)anilino]-6-nitroquinolinium dichloride], the melting point was above 300 °C. The TD50 in the data set on CMV-EE210 cell line was 12.5 µM. Besides, at DNMT1, the % DNMT1 protein level remaining at 5 µM amounted to 101%, the % DNMT1 protein level remaining at 10 µM worked out at 89% and the % DNMT1 protein level remaining at 100 µM amounted to 59%.
The like results for `C[n+]1ccc(Nc2cccc(NC(=O)c3ccc(Nc4ccnc5ccc(N)cc45)cc3)c2)cc1` [Cpd. K, 4-[3-({4-[(6-ammonio-4-quinolinyl)amino]benzoyl}amino)anilino]-1-methylpyridinium dichloride] were, in that order, 270 to 274 °C, 12.5 µM, 98%, 92% and 37%.
Consider `C[n+]1ccc(Nc2cccc(C(=O)Nc3ccc(Nc4ccnc5ccc(N)cc45)cc3)c2)cc1` [Cpd. M, 6-amino-4-[4-({3-[(1-methyl-4-pyridiniumyl)amino]benzoyl}amino)anilino]quinolinium dichloride], for which the melting point is above 310 °C. This molecule yielded a TD50 in the data set on CMV-EE210 cell line of 25 µM. Moreover, at DNMT1, the % DNMT1 protein level remaining at 5 µM came out at 30%, the % DNMT1 protein level remaining at 10 µM turned out to be 40% and the % DNMT1 protein level remaining at 100 µM is 43%.
Turning to `C[n+]1ccc(Nc2cccc(NC(=O)c3ccc(Nc4ccnc5cc([N+](=O)[O-])ccc45)cc3)c2)cc1` [Cpd. R, 1-methyl-4-[3-({4-[(7-nitro-4-quinolinyl)amino]benzoyl}amino)anilino]pyridinium chloride], the TD50 with CMV-EE210 cell line was found to be 25 µM. Besides, at DNMT1, the % DNMT1 protein level remaining at 5 µM was 160%, the % DNMT1 protein level remaining at 10 µM came to 170% and the % DNMT1 protein level remaining at 100 µM was found to be 165%.
The molecule `C[n+]1ccc(Nc2cccc(C(=O)Nc3ccc(Nc4ccnc5cc([N+](=O)[O-])ccc45)cc3)c2)cc1.Cl.[Cl-]` [Cpd. T, 4-[4-({3-[(1-methyl-4-pyridiniumyl)amino]benzoyl}amino)anilino]-7-nitroquinolinium dichloride] registered a TD50 in the data set with CMV-EE210 cell line of 25 µM. In addition, the entries for the “% DNMT1 Level” value on DNMT1 (5 μM), at DNMT1 (10 μM) and at DNMT1 (100 μM) were 64%, 69% and 85%, respectively.
In turn, `C[n+]1ccc(Nc2ccc(C(=O)Nc3ccc(Nc4ccnc5cc([N+](=O)[O-])ccc45)cc3)cc2)cc1.Cl.[Cl-]` [Cpd. U, 4-[4-({4-[(1-methyl-4-pyridiniumyl)amino]benzoyl}amino)anilino]-7-nitroquinolinium dichloride] registered a TD50 in the data set with CMV-EE210 cell line of 25 µM. The “% DNMT1 Level” value was 97% on DNMT1 (5 μM), 53% at DNMT1 (10 μM) and 32% at DNMT1 (100 μM).
Regarding `C[n+]1ccc(Nc2cccc(NC(=O)c3ccc(Nc4ccnc5cc(N)ccc45)cc3)c2)cc1` [Cpd. V, 4-[3-({4-[(7-ammonio-4-quinolinyl)amino]benzoyl}amino)anilino]-1-methylpyridinium dichloride], the melting point lay in the range of 281 to 285 °C. In addition, in the data set on CMV-EE210 cell line, the TD50 came to 12.5 µM. On DNMT1, the % DNMT1 protein level remaining at 5 µM was determined as 112%, the % DNMT1 protein level remaining at 10 µM was 110% and the % DNMT1 protein level remaining at 100 µM worked out at 124%.
